# Measured values: patent US12582654B2, “Cyano-substituted pyridine and cyano-substituted pyrimidine compound and preparation method therefor and application thereof” (BEIJING SCITECH-MQ PHARMACEUTICALS LIMITED, priority 2019, dated 2026)
# How the values were obtained:
# Ba/F3 ETV6-FGFR4 cells = target: T1, Ba/F3 ETV6-FGFR4 cells (Homo sapiens, UniProt P22455); assay: Inhibition of cell proliferation (CCK-8), Ba/F3 ETV6-FGFR4 cells; format: cell-based; conditions: 72 hours of incubation, read-out: Ba/F3 ETV6-FGFR4 IC50
# T1 construct: fused on or other part: N-terminal part of ETV6 (TEL), the oligomerising partner that makes the FGFR4 kinase constitutively active; P41212 (Transcription factor ETV6)
# How it was run: (§1)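 Ba/F3 cells expressing ETV6-FGFR4 or ETV6-FGFR4-V550L exposed for 72 h to 9 concentrations from 4-fold serial dilution (0.25% DMSO final). Viability by CCK-8, OD 450 nm after 1–2 h at 37 °C, relative to untreated and cell-free blanks; IC50 from curve fitting.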
# FGFR4 kinase = FGFR4 kinase (Homo sapiens, UniProt P22455); assay: Inhibition of FGFR4 kinase activity (ULight-labeled JAK-1 peptide, EU665/EU615 reading); format: biochemical; conditions: FGFR4 kinase 3.85 nM, ATP 100 μM, enzymatic reaction 2 hours
# How it was run: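 TR-FRET kinase assay using 3.85 nM FGFR4, 100 μM ATP and 100 nM ULight-JAK-1 (Tyr1023) peptide; 5 min enzyme–compound preincubation, then 2 h at room temperature. Compounds at 11 3-fold dilutions from 2.5 μM down to 0.042 nM, 1% DMSO. IC50 from EU665/EU615 ratio inhibition curves.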
# [1] = target: T2, Ba/F3 ETV6-FGFR4-V550L cells (Homo sapiens, UniProt P22455, V550L, cells depend on it); assay: Inhibition of cell proliferation (CCK-8), Ba/F3 ETV6-FGFR4-V550L cells; format: cell-based; conditions: 72 hours of incubation, read-out: Ba/F3 ETV6-FGFR4-V550L IC50
# T2 construct: fused on or other part: N-terminal part of ETV6 (TEL), the oligomerising partner of the fusion; already named as the first entry; P41212 (Transcription factor ETV6)
# How it was run: as §1
# FGFR4 V550L kinase = FGFR4 V550L kinase (Homo sapiens, UniProt P22455, V550L); assay: Inhibition of FGFR4 V550L mutant kinase activity (ULight-labeled PolyGT, EU665/EU615 reading); format: biochemical; conditions: FGFR4 V550L kinase 1 nM, ATP 10 μM, enzymatic reaction 2 hours
# How it was run: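 TR-FRET kinase assay: 1 nM FGFR4 V550L, 10 μM ATP, 100 nM ULight-PolyGT substrate, 2 h at room temperature after 5 min compound–enzyme preincubation, 1% DMSO. Compound tested as 11-point 3-fold dilution from 2.5 μM to 0.042 nM final. Signal as EU665/EU615 ratio; IC50 fitted from % inhibition.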
# FGFR4 V550L kinase, sequence (P22455 22-802 V550L): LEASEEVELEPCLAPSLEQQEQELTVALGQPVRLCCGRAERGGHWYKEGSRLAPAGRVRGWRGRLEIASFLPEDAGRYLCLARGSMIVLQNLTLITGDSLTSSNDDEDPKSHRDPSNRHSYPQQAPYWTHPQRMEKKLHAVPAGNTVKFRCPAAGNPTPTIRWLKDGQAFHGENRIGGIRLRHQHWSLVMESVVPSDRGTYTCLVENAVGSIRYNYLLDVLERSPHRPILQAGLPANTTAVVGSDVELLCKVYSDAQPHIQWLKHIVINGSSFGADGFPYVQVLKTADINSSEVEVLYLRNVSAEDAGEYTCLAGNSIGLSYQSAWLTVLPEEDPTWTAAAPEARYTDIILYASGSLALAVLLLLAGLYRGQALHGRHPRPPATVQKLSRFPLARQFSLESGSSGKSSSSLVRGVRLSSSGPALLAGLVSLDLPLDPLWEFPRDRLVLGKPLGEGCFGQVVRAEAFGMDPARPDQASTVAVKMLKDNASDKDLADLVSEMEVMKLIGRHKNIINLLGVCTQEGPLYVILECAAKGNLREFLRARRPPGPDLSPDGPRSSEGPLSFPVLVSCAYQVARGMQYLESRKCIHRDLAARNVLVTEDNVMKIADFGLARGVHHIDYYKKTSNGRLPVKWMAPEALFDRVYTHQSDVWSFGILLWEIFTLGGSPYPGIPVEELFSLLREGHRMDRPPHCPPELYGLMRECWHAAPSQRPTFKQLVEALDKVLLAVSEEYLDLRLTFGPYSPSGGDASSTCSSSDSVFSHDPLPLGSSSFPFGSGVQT
# T1 sequence (P22455 whole entry, change not shown, the tested form may be a part): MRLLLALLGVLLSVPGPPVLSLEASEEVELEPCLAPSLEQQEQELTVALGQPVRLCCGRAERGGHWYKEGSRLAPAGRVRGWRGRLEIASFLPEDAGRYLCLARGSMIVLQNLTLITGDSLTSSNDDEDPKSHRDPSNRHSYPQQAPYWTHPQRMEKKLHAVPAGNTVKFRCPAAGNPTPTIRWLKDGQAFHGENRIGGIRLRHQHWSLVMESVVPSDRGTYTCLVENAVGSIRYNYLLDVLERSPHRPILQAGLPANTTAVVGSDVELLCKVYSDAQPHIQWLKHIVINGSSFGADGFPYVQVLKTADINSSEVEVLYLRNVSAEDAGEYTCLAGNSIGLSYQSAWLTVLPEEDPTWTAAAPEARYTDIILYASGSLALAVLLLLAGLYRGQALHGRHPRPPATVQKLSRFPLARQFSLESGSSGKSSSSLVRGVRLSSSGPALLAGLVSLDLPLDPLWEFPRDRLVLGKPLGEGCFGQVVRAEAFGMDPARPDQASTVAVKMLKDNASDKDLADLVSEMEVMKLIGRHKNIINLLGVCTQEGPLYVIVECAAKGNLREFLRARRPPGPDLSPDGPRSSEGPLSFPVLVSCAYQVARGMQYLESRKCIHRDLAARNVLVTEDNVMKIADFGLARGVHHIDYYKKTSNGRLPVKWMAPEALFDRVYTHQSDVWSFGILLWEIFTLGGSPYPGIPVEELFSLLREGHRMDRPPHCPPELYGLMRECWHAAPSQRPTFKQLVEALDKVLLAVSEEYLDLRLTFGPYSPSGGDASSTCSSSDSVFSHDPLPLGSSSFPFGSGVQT
# T2 sequence (P22455 whole entry V550L, the tested form may be a part): as the sequence (P22455 whole entry, change not shown, the tested form may be a part) above, with V550L counted along it
# FGFR4 kinase, sequence (P22455 22-802): as the sequence (P22455 22-802 V550L) above, with L529V counted along it
SMILES,GI50 (Ba/F3 ETV6-FGFR4 cells) [nM],IC50 (FGFR4 kinase) [nM],GI50 [1] [nM],IC50 (FGFR4 V550L kinase) [nM]
"C=CC(=O)Nc1cc(N2CCC(N3CCN(C)C(=O)C3)CC2)ccc1Nc1ncc(C#N)c(Nc2ccccc2OC(C)C)n1 [Example 43, N-(2-((5-cyano-4-((2-isopropoxyphenyl)amino)pyrimidin-2-yl)amino)-5-(4-(4-methyl-3-oxopiperazin-1-yl)piperidin-1-yl)phenyl) acrylamide]",≤ 10,10 to 50,≤ 10,10 to 50
"C=CC(=O)Nc1cc(N2CCC(N3CCN(C)C(=O)C3)CC2)c(F)cc1Nc1ncc(C#N)c(Nc2ccccc2OC(C)C)n1 [Example 44, N-(2-((5-cyano-4-((2-isopropoxyphenyl)amino)pyrimidin-2-yl)amino)-4-fluoro-5-(4-(4-methyl-3-oxopiperazin-1-yl)piperidin-1-yl)phenyl) acrylamide]",≤ 10,10 to 50,≤ 10,10 to 50
"C=CC(=O)Nc1cc(N2CCC(N3CCN(C)CC3=O)CC2)ccc1Nc1ncc(C#N)c(Nc2ccc(F)cc2OC(C)C)n1 [Example 47, N-(2-((5-cyano-4-((4-fluoro-2-isopropoxyphenyl)amino)pyrimidin-2-yl)amino)-5-(4-(4-methyl-2-oxopiperazin-1-yl)piperidin-1-yl)phenyl) acrylamide]",≤ 10,10 to 50,≤ 10,10 to 50
"C=CC(=O)Nc1cc(N2CCN(C3CCN(C)CC3)CC2)ccc1Nc1ncc(C#N)c(Nc2ccccc2OC(C)C)n1 [Example 49, N-(2-((5-cyano-4-((2-isopropoxyphenyl)amino)pyrimidin-2-yl)amino)-5-(4-(1-methylpiperidin-4-yl)piperazin-1-yl)phenyl) acrylamide]",≤ 10,≤ 10,≤ 10,≤ 10
"C=CC(=O)Nc1cc(N2CCC(N3CCN(C(C)=O)CC3)CC2)ccc1Nc1ncc(C#N)c(Nc2ccccc2OC(C)C)n1 [Example 50, N-(5-(4-(4-acetylpiperazin-1-yl)piperidin-1-yl)-2-((5-cyano-4-((2-isopropoxyphenyl)amino)pyrimidin-2-yl)amino)phenyl) acrylamide]",≤ 10,10 to 50,≤ 10,≤ 10
"C=CC(=O)Nc1cc(N2CCC(N3CCN(S(C)(=O)=O)CC3)CC2)ccc1Nc1ncc(C#N)c(Nc2ccccc2OC(C)C)n1 [Example 51, N-(2-((5-cyano-4-((2-isopropoxyphenyl)amino)pyrimidin-2-yl)amino)-5-(4-(4-(methylsulfonyl)piperazin-1-yl)piperidin-1-yl)phenyl) acrylamide]",≤ 10,100 to 1000,≤ 10,10 to 50
"C=CC(=O)Nc1cc(N2CCC(N3CCN(C)CC3)CC2)c(OC)cc1Nc1ncc(C#N)c(Nc2ccccc2OC(C)C)n1 [Example 53, N-(2-((5-cyano-4-((2-isopropoxyphenyl)amino)pyrimidin-2-yl)amino)-4-methoxy-5-(4-(4-methylpiperazin-1-yl)piperidin-1-yl)phenyl) acrylamide]",≤ 10,50 to 100,≤ 10,≤ 10
"C=CC(=O)Nc1cc(N(C)CCN(C)C)c(OC)cc1Nc1ncc(C#N)c(Nc2ccccc2OC(C)C)n1 [Example 55, N-(2-((5-cyano-4-((2-isopropoxyphenyl)amino)pyrimidin-2-yl)amino)-5-((2-(dimethylamino)ethyl)(methyl)amino)-4-methoxyphenyl) acrylamide]",≤ 10,10 to 50,≤ 10,≤ 10
"C=CC(=O)Nc1cc(N2CCC(N(C)CCOC)CC2)ccc1Nc1ncc(C#N)c(Nc2ccccc2OC(C)C)n1 [Example 56, N-(2-((5-cyano-4-((2-isopropoxyphenyl)amino)pyrimidin-2-yl)amino)-5-(4-((2-methoxyethyl) (methyl)amino)piperidin-1-yl)phenyl) acrylamide]",≤ 10,10 to 50,≤ 10,≤ 10

# Next, values leading:
GI50 (Ba/F3 ETV6-FGFR4 cells) [nM],IC50 (FGFR4 kinase) [nM],GI50 [1] [nM],IC50 (FGFR4 V550L kinase) [nM],SMILES
≤ 10,≤ 10,≤ 10,≤ 10,"C=CC(=O)Nc1cc(N2CCC(N3CCN(C)CC3)CC2)ccc1Nc1ncc(C#N)c(Nc2ccc(F)cc2OC(C)C)n1 [Example 39, N-(2-((5-cyano-4-((4-fluoro-2-isopropoxyphenyl)amino)pyrimidin-2-yl)amino)-5-(4-(4-methylpiperazin-1-yl)piperidin-1-yl)phenyl) acrylamide]"
≤ 10,10 to 50,≤ 10,10 to 50,"C=CC(=O)Nc1cc(N2CCC(N3CCN(C)CC3)CC2)c(F)cc1Nc1ncc(C#N)c(Nc2ccc(F)cc2OC(C)C)n1 [Example 40, N-(2-((5-cyano-4-((4-fluoro-2-isopropoxyphenyl)amino)pyrimidin-2-yl)amino)-4-fluoro-5-(4-(4-methylpiperazin-1-yl)piperidin-1-yl)phenyl) acrylamide]"
100 to 1000,10 to 50,100 to 1000,≤ 10,"C=CC(=O)Nc1cc(N2CCC(N3CCN(C)CC3)CC2)ccc1Nc1ncc(C#N)c(Nc2ccc(C(N)=O)cc2OC(C)C)n1 [Example 41, 4-((2-((2-acrylamido-4-(4-(4-methylpiperazin-1-yl)piperidin-1-yl)phenyl)amino)-5-cyanopyrimidin-4-yl)amino)-3-isopropoxybenzamide]"
≤ 10,≤ 10,≤ 10,≤ 10,"C=CC(=O)Nc1cc(N2CCC(N3CCC(C)(O)CC3)CC2)ccc1Nc1ncc(C#N)c(Nc2ccccc2OC(C)C)n1 [Example 42, N-(2-((5-cyano-4-((2-isopropoxyphenyl)amino)pyrimidin-2-yl)amino)-5-(4-hydroxy-4-methyl-[1,4′-bipiperidin]-1′-yl)phenyl) acrylamide]"
≤ 10,10 to 50,≤ 10,10 to 50,"C=CC(=O)Nc1cc(N2CCC(N3CCN(C)C(=O)C3)CC2)ccc1Nc1ncc(C#N)c(Nc2ccc(F)cc2OC(C)C)n1 [Example 45, N-(2-((5-cyano-4-((4-fluoro-2-isopropoxyphenyl)amino)pyrimidin-2-yl)amino)-5-(4-(4-methyl-3-oxopiperazin-1-yl)piperidin-1-yl)phenyl) acrylamide]"
≤ 10,10 to 50,≤ 10,10 to 50,"C=CC(=O)Nc1cc(N2CCC(N3CCN(C)CC3=O)CC2)ccc1Nc1ncc(C#N)c(Nc2ccccc2OC(C)C)n1 [Example 46, N-(2-((5-cyano-4-((2-isopropoxyphenyl)amino)pyrimidin-2-yl)amino)-5-(4-(4-methyl-2-oxopiperazin-1-yl)piperidin-1-yl)phenyl) acrylamide]"
≤ 10,10 to 50,≤ 10,10 to 50,"C=CC(=O)Nc1cc(N2CCC(N3CCN(C)CC3=O)CC2)c(F)cc1Nc1ncc(C#N)c(Nc2ccccc2OC(C)C)n1 [Example 48, N-(2-((5-cyano-4-((2-isopropoxyphenyl)amino)pyrimidin-2-yl)amino)-4-fluoro-5-(4-(4-methyl-2-oxopiperazin-1-yl)piperidin-1-yl)phenyl) acrylamide]"
100 to 1000,≤ 10,100 to 1000,≤ 10,"C=CC(=O)Nc1cc(N2CCC(N3CCN(C)CC3)CC2)ccc1Nc1ncc(C#N)c(Nc2ccc(C(=O)O)cc2OC(C)C)n1 [Example 52, 4-((2-((2-acrylamido-4-(4-(4-methylpiperazin-1-yl)piperidin-1-yl)phenyl)amino)-5-cyanopyrimidin-4-yl)amino)-3-isopropoxybenzoic acid]"
≤ 10,10 to 50,≤ 10,≤ 10,C=CC(=O)Nc1cc(N(C)CCN(C)C)ccc1Nc1ncc(C#N)c(Nc2ccccc2OC(C)C)n1 [Example 54]
≤ 10,10 to 50,≤ 10,≤ 10,"C=CC(=O)Nc1cc(N2CCC(N(C)CCN(C)C)CC2)ccc1Nc1ncc(C#N)c(Nc2ccccc2OC(C)C)n1 [Example 57, N-(2-((5-cyano-4-((2-isopropoxyphenyl)amino)pyrimidin-2-yl)amino)-5-(4-((2-(dimethylamino)ethyl)(methyl)amino)piperidin-1-yl)phenyl) acrylamide]"
≤ 10,10 to 50,≤ 10,≤ 10,"C=CC(=O)Nc1cc(N2CCC(N3CCN(CCOC)CC3)CC2)ccc1Nc1ncc(C#N)c(Nc2ccccc2OC(C)C)n1 [Example 58, N-(2-((5-cyano-4-((2-isopropoxyphenyl)amino)pyrimidin-2-yl)amino)-5-(4-(4-(2-methoxyethyl)piperazin-1-yl)piperidin-1-yl)phenyl) acrylamide]"
